Measured values from patent US6652890B2, “Tea catechins as cancer specific proliferation inhibitors” (Purdue Research Foundation, priority 1999, dated 2003).
Entries after “also recorded” stand apart in the source; their conditions may differ. Like-named read-outs stand apart in the source and are kept apart here.

Legend:
[1] = molecular target: T1, tNOX activity of intact 4T1 mouse mammary cells (Mus musculus, UniProt Q8R0Z2); experiment: Inhibition of tNOX (NADH oxidase) activity of intact 4T1 cells; assay type: cell-based; conditions: for Inhibition of residual tNOX remaining in the presence of EGCg, EC>90: estimated
T1 construct: endogenous in cells; host or cells: 4T1 mouse mammary carcinoma cells (intact)
T1 sequence (Q8R0Z2 1-598): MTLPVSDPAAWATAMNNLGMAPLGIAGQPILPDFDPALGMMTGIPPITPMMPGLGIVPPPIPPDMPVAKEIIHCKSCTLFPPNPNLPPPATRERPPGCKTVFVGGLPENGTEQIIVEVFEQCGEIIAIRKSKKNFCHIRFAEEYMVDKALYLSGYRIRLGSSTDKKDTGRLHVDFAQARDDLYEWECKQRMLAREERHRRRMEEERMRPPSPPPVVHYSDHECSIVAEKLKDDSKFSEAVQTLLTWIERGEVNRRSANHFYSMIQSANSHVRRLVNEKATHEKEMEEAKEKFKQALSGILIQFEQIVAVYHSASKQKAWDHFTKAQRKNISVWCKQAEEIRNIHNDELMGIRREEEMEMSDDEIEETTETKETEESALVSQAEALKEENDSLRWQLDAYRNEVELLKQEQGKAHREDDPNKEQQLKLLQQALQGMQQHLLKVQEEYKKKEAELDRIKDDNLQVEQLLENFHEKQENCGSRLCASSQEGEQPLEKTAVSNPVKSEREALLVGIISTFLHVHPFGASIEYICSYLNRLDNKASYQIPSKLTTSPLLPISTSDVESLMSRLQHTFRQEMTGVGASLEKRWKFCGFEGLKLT
Protocol: A mouse mammary tumor subpopulation line 4T1 arising from a BALB/cf C3H mouse was grown in DME-10, Dulbecco's modified Eagle's medium supplemented with 5% fetal calf serum, 5% newborn calf serum, 1 mM mixed non-essential amino acids, 2 mM L-glutamine, penicillin (100 units/ml), and streptomycin (100 μg/ml) (Miller et al., 1987, Brit. J. Can. 56:561-569 and Miller et al., 1990, Invasion Metastasis 10:101-112).
NADH oxidase activity was determined as the disappearance of NADH measured at 340 nm in a reaction mixture containing 25 mM Tris-Mes buffer (pH 7.2), 1 mM KCN, and 150 μM NADH at 37° C. Activity was measured using a Hitachi U3210 spectrophotometer with stirring and continuous recording over two intervals of 5 min each. A millimolar extinction coefficient of 6.22 was used to determine specific activity.
NADH oxidase activity was determined as the disappearance of NADH measured at 340 nm in a reaction mixture containing 25 mM Tris-Mes buffer (pH 7.2), 1 mM KCN, and 150 μM NADH at 37° C. Activity was measured at 340 nm with reference at 430 nm using an SLM Aminco DW-2000 spectrophotometer (Milton Roy, Rochester, N.Y.) in the dual beam mode of operation with stirring and continuous recording over two intervals of 5 min each. A millimolar extinction coefficient of 6.22 was used to determine specific activity.

[2] = test system: 4T1 metastatic mouse mammary cancer cells; experiment: Killing of 4T1 metastatic mouse mammary cancer cells in culture; assay type: cell-based; conditions: EGCg 10^−7 M, EC 10^−4 M, alone or combined
4T1 mouse mammary cancer = experiment: Preliminary animal study, Balb/c mice with 4T1 mouse mammary cancer; assay type: in vivo; conditions: treated for 5 days, 100 μl/day; glaucarubolone 1 mg, EGCg + EC 0.2 + 1.2 mg per animal
[3] = Inhibition of residual tNOX remaining in the presence of EGCg, EC50, estimated, EGCg given as 0.1 mM (title), 10^−6 M (head), 10^−7 M
[4] = EGCg given as 0.1 mM (title), 10^−6 M (head), 10^−7 M

Compound: Oc1cc(O)c2c(c1)OC(c1ccc(O)c(O)c1)C(O)C2 (racemic) [C, (±) - catechin]
- Effect on NOX activity ([1]; in the presence of 10^−7 M EGCg, listed as Catechin): largely without effect
- Effect on NOX activity ([1]; in the presence of 10^−7 M EGCg, listed as ±catechin): little affected

Compound: Oc1cc(O)c2c(c1)O[C@H](c1ccc(O)c(O)c1)[C@H](O)C2 [EC, (−) - epicatechin]
- EC50 for tNOX inhibition by (−)-epicatechin ([1]; EGCg concentration 0 M, EGCg alone): No effect
- EC50 for tNOX inhibition by (−)-epicatechin ([1]; EGCg concentration 0 M, supplied as Tegreen™): No effect
- EC50 ([1]; EGCg concentration 10^−4 M, EGCg alone, read-out: EC50 for tNOX inhibition by (−)-epicatechin): 500 ± 400 nM
- EC50 ([1]; EGCg concentration 10^−4 M, supplied as Tegreen™, read-out: EC50 for tNOX inhibition by (−)-epicatechin): 300 ± 200 nM
- EC50 ([1]; EGCg concentration 10^−5 M, EGCg alone, read-out: EC50 for tNOX inhibition by (−)-epicatechin): 700 ± 300 nM
- EC50 ([1]; EGCg concentration 10^−6 M, EGCg alone, read-out: EC50 for tNOX inhibition by (−)-epicatechin): 150 ± 50 nM
- EC50 ([1]; EGCg concentration 10^−6 M, supplied as Tegreen™, read-out: EC50 for tNOX inhibition by (−)-epicatechin): 500 ± 400 nM
- EC50 ([1]; EGCg concentration 10^−7 M, EGCg alone, read-out: EC50 for tNOX inhibition by (−)-epicatechin): 200 ± 100 nM
- EC50 for tNOX inhibition by (−)-epicatechin ([1]; EGCg concentration 10^−7 M, supplied as Tegreen™): No effect
- EC50 for tNOX inhibition by (−)-epicatechin ([1]; EGCg concentration 10^−8 M, EGCg alone): No effect
- EC50 for tNOX inhibition by (−)-epicatechin ([1]; EGCg concentration 10^−8 M, supplied as Tegreen™): No effect
- EC50 ([1]; in the presence of 10^−7 M EGCg, read-out: EC50 of EC): ~200 nM
- Increase in cell number cm^−2 over 72 h · 10^2 [2]: 560 cm^−2 · 10^2

Compound: O=C(O[C@@H]1Cc2c(O)cc(O)cc2O[C@@H]1c1ccc(O)c(O)c1)c1cc(O)c(O)c(O)c1 [ECG, (−) - epicatechin gallate]
- EC50 [1, 3]: 500 nM
- Inhibition of residual tNOX remaining in the presence of EGCg, EC>90 [1, 4]: 10^−6 M

Compound: Oc1cc(O)c2c(c1)O[C@H](c1cc(O)c(O)c(O)c1)[C@H](O)C2 [EGC, (−) - epigallocatechin]
- EC50 [1, 3]: 1000 nM
- Inhibition of residual tNOX remaining in the presence of EGCg, EC>90 [1, 4]: 10^−5 M

Compound: O=C(O[C@@H]1Cc2c(O)cc(O)cc2O[C@H]1c1cc(O)c(O)c(O)c1)c1cc(O)c(O)c(O)c1 [GCG, gallocatechin gallate]
- Inhibition of residual tNOX remaining in the presence of EGCg, EC>90 [1, 4]: Not reached due
- Effect on NOX activity ([1]; in the presence of 10^−7 M EGCg): less effective; also recorded: less affected

Compound: CC1=CC(=O)[C@@H](O)[C@]2(C)[C@H]3[C@@]4(O)OC[C@]35[C@H]([C@@H](C)[C@H]4O)[C@@H](O)C(=O)O[C@@H]5C[C@@H]12 [Glaucarubolone, glaucarubolone]
- Tumor wt (4T1 mouse mammary cancer): 1.5 ± 0.1 g
